Reference: patent publication US9550796B2, “Pyrrolopyrrolone derivatives and their use as BET inhibitors” (NOVARTIS AG, priority 2013, dated 2017)

Biological target: CREBBP (Homo sapiens (Human), UniProt Q92793)
Test: AlphaScreen in-vitro binding assay for CREBBP
Details: 324 nM His-CREBBP (1081-1197), acetyl-histone H4 (AcK 5, 8, 12) peptide
Outline: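 IC50 values were derived by non-linear regression of percent inhibition across 8 compound concentrations. Protein was His-tagged CREBBP bromodomain (1081-1197), peptide acetyl-histone H4 (AcK 5, 8, 12), in HEPES pH 7.5 buffer. Read-out was AlphaScreen with Ni-chelate acceptor and streptavidin donor beads, 35 min at 30° C then 60 min at RT.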

Chain of CREBBP (Q92793 1081-1197): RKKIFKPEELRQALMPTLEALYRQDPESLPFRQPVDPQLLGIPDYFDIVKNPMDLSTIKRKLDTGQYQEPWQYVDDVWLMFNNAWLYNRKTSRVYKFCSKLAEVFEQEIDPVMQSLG

IC50 | Structure (SMILES)
790 nM | Cc1cc2c(n1C)[C@@H](c1ccc(Cl)cc1)N(c1cc(Cl)c(=O)n(C)c1)C2=O [Example 75, (R)-5-(5-chloro-1-methyl-6-oxo-1,6-dihydropyridin-3-yl)-6-(4-chlorophenyl)-1,2-dimethyl-5,6-dihydropyrrolo[3,4-b]pyrrol-4(1H)-one]
91 nM | COc1ncc(-c2cc3c(n2C)[C@@H](c2ccc(Cl)cc2)N(c2cc(C)c(=O)n(C)c2)C3=O)c(OC)n1 [Example 54, (R)-6-(4-chlorophenyl)-2-(2,4-dimethoxypyrimidin-5-yl)-5-(1,5-dimethyl-6-oxo-1,6-dihydropyridin-3-yl)-1-methyl-5,6-dihydropyrrolo[3,4-b]pyrrol-4(1H)-one]
1300 nM | Cn1ccc2c1[C@@H](c1ccc(Cl)cc1)N(c1cc(Cl)c(=O)n(C)c1)C2=O [Example 77, (R)-5-(5-chloro-1-methyl-6-oxo-1,6-dihydropyridin-3-yl)-6-(4-chlorophenyl)-1-methyl-5,6-dihydropyrrolo[3,4-b]pyrrol-4(1H)-one]
130 nM | COc1ncc(-c2cc3c(n2C)[C@@H](c2ccc(Cl)cc2)N(c2cc(C)c(=O)n(C)c2)C3=O)cn1 [Example 56, (R)-6-(4-chlorophenyl)-5-(1,5-dimethyl-6-oxo-1,6-dihydropyridin-3-yl)-2-(2-methoxypyrimidin-5-yl)-1-methyl-5,6-dihydropyrrolo[3,4-b]pyrrol-4(1H)-one]

Continued, compound first:

Structure (SMILES) | IC50
Cc1cc(N2C(=O)c3cc(-c4ccn(C)c(=O)c4)n(C)c3C2c2ccc(Cl)cc2)cn(C)c1=O (stereo not drawn) [Example 45, 6-(4-chlorophenyl)-5-(1,5-dimethyl-6-oxo-1,6-dihydropyridin-3-yl)-1-methyl-2-(1-methyl-2-oxo-1,2-dihydropyridin-4-yl)-5,6-dihydropyrrolo[3,4-b]pyrrol-4(1H)-one] | 370 nM
Cn1c(-c2ccc(=O)n(C)c2)cc2c1C(c1ccc(Cl)cc1)N(c1cc(Cl)c(=O)n(C)c1)C2=O (stereo not drawn) [Example 42, 5-(5-chloro-1-methyl-6-oxo-1,6-dihydropyridin-3-yl)-6-(4-chlorophenyl)-1-methyl-2-(1-methyl-6-oxo-1,6-dihydropyridin-3-yl)-5,6-dihydropyrrolo[3,4-b]pyrrol-4(1H)-one] | 310 nM
Cc1cn(C)c2c1C(=O)N(c1cc(C)c(=O)n(C)c1)C2c1ccc(Cl)cc1 (stereo not drawn) [Example 34, 6-(4-chlorophenyl)-5-(1,5-dimethyl-6-oxo-1,6-dihydropyridin-3-yl)-1,3-dimethyl-5,6-dihydropyrrolo[3,4-b]pyrrol-4(1H)-one] | 1900 nM
COc1ncc(-c2cc3c(n2C)C(c2ccc(Cl)cc2)N(c2cc(Cl)c(=O)n(C)c2)C3=O)c(OC)n1 (stereo not drawn) [Example 38, 5-(5-chloro-1-methyl-6-oxo-1,6-dihydropyridin-3-yl)-6-(4-chlorophenyl)-2-(2,4-dimethoxypyrimidin-5-yl)-1-methyl-5,6-dihydropyrrolo[3,4-b]pyrrol-4(1H)-one] | 205 nM
Cc1cn(C)c2c1C(=O)N(c1cc(C)c3nnc(C)n3c1)C2c1ccc(Cl)cc1 (stereo not drawn) [Example 33, 6-(4-chlorophenyl)-5-(3,8-dimethyl-[1,2,4]triazolo[4,3-a]pyridin-6-yl)-1,3-di methyl-5,6-dihydropyrrolo[3,4-b]pyrrol-4(1H)-one] | 10100 nM
